Results on two molecules are retold here after patent US11000033B2, “Ketone or oxime compound, and herbicide” (NISSAN CHEMICAL CORPORATION, priority 2014, dated 2021).

Holding throughout (type): in vivo
For series [1], the system named is Lolium multiflorum Lam. The experiment in a line: Test Example 4: herbicidal effect by soil treatment (symbol K). As to conditions: application herbicide amount 320 g/ha. The method, boiled down: (§1)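 Seeds were sown in sterilized diluvial soil, covered with about 1.5 cm of soil, and the soil surface was sprayed with a water-diluted emulsion of the compound at a predetermined rate. Plants grew in a greenhouse at 25° C. to 30° C.; effects were scored visually 3 weeks after application.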

In another series the test system is Amaranthus retroflexus. The experiment in a line: Test Example 5: herbicidal effect by foliage application, plastic box (symbol N). As to conditions: 320 g/ha, 3 weeks after application. In short, it runs like this: (§2)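 Emulsion formulation, diluted with water to the intended rate, was applied uniformly to leaves by small sprayer. Recipients were 14-day greenhouse-grown seedlings (25° C. to 30° C.). Assessment followed at 3 weeks.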

For the next series, the system named is Galium spurium. As to the kind of experiment: Test Example 4: herbicidal effect by soil treatment (symbol Q). As to conditions: application herbicide amount 320 g/ha. The method, boiled down: as §1
The test system of a further series is Avena fatua. The experiment in a line: Test Example 5: herbicidal effect by foliage application, plastic box (symbol I). The settings on record: 320 g/ha, 3 weeks after application. The method, boiled down:
as §2

For another series, the system named is corn. As to the kind of experiment: Test Example 4: effect on crop by soil treatment (symbol c). The settings on record: application herbicide amount 320 g/ha. In short, it runs like this:
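Crop seed is sown in spots together with several weed species in a box of sterilized diluvial soil. It is covered by about 1.5 cm of soil and kept in a greenhouse held between 25° C. and 30° C.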

In series [2] the test system is Setaria viridis. As to the kind of experiment: Test Example 5: herbicidal effect by foliage application, plastic box (symbol G). The settings on record: 320 g/ha, 3 weeks after application. The method, boiled down: as §2
Series [3] relates to Alopecurus myosuroides. As to the kind of experiment: Test Example 4: herbicidal effect by soil treatment (symbol J). As to conditions: application herbicide amount 320 g/ha. In short, it runs like this: as §1
A further series has as its system rice. As to the kind of experiment: Test Example 4: effect on crop by soil treatment (symbol b). The settings on record: application herbicide amount 320 g/ha. In short, it runs like this:
(§3)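 Plants grew in a 25° C. to 30° C. greenhouse after spot-sowing of seeds, including beet, rapeseed, wheat and rice, into sterilized diluvial soil under roughly 1.5 cm of cover soil.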

Series [4] relates to Echinochloa oryzacola Vasing. The experiment in a line: Test Example 1: herbicidal activity, application before weed generation in submerged conditions (symbol A). The settings on record: application herbicide amount 320 g/ha. In short, it runs like this: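 Steps: alluvial soil flooded to 4 cm; weed seeds sown together; rice seedlings (2.5 leaf) transplanted; diluted emulsion applied to water surface the same day as sowing; plants grown at 25–30 °C in greenhouse; herbicidal effect rated on a 0–5 scale at 3 weeks.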

Series [5] deals with soybean. The experiment in a line: Test Example 5: effect on crop by foliage application, plastic box (symbol d). As to conditions: 320 g/ha, 3 weeks after application. The method, boiled down:
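In a plastic box 7 cm deep filled with sterilized diluvial soil, seeds of crops and weeds such as Digitaria ciliaris, Avena fatua and Amaranthus retroflexus are sown in spots and covered with about 1.5 cm of soil before greenhouse growth at 25–30° C.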

The subject of a further series is wheat. As to the kind of experiment: Test Example 4: effect on crop by soil treatment (symbol e). The settings on record: application herbicide amount 320 g/ha. In short, it runs like this:
as §3

The test system of series [6] is Setaria viridis. As to the kind of experiment: Test Example 4: herbicidal effect by soil treatment (symbol G). As to conditions: application herbicide amount 320 g/ha. In short, it runs like this: as §1
Series [7] concerns soybean. As to the kind of experiment: Test Example 4: effect on crop by soil treatment (symbol d). The settings on record: application herbicide amount 320 g/ha. In short, it runs like this:
as §3

For series [8], the system named is Veronica persica. As to the kind of experiment: Test Example 4: herbicidal effect by soil treatment (symbol R). The settings on record: application herbicide amount 320 g/ha. The method, boiled down:
as §1

In another series the test system is Cyperus difformis. As to the kind of experiment: Test Example 3: herbicidal effect by foliage application, Wagner pot (symbol E). The settings on record: application herbicide amount 320 g/ha, Table 24. In short, it runs like this:
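Steps: fill pot with alluvial soil; add water to 0.1–0.5 cm depth; sow weed and rice seed; grow 14 days at 25–30 °C; spray diluted emulsion over the leaves; rate effect after 3 weeks.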

Series [9] has as its system Alopecurus myosuroides. The experiment in a line: Test Example 5: herbicidal effect by foliage application, plastic box (symbol J). As to conditions: 320 g/ha, 3 weeks after application. The method, boiled down: as §2
The subject of series [10] is Lolium multiflorum Lam. The experiment in a line: Test Example 5: herbicidal effect by foliage application, plastic box (symbol K). The settings on record: 320 g/ha, 3 weeks after application. The method, boiled down: as §2
Series [11] concerns Veronica persica. The experiment in a line: Test Example 5: herbicidal effect by foliage application, plastic box (symbol R). The settings on record: 320 g/ha, 3 weeks after application. In short, it runs like this: as §2

Take `CCC(CC1CC(O)=C(c2c(C)cc(C)cc2OC)C1=O)=NOC` (mixture of isomers) [13-003]: the “K: Lolium multiflorum Lam., herbicidal effect grade” value with Lolium multiflorum Lam. [1] and with Lolium multiflorum Lam. [10] was 5 (Herbicidal ratio of 90% or more (almost completely withered)) each time. In the series on Amaranthus retroflexus, the “N: Amaranthus retroflexus, herbicidal effect grade” value is listed as 0 (Herbicidal ratio of 5% or lower (almost no effect)). Also, the “Q: Galium spurium, herbicidal effect grade” value with Galium spurium was 0 (Herbicidal ratio of 5% or lower (almost no effect)). For the same molecule, the “I: Avena fatua, herbicidal effect grade” value in the series on Avena fatua was 5 (Herbicidal ratio of 90% or more (almost completely withered)). Also, the “c: corn, effect on crop grade” value with corn is 5 (Herbicidal ratio of 90% or more (almost completely withered)). Moreover, the “G: Setaria viridis, herbicidal effect grade” value with Setaria viridis [2] and with Setaria viridis [6] was 5 (Herbicidal ratio of 90% or more (almost completely withered)) in each case. Moreover, the “J: Alopecurus myosuroides, herbicidal effect grade” value in the series on Alopecurus myosuroides [3] and with Alopecurus myosuroides [9] was 5 (Herbicidal ratio of 90% or more (almost completely withered)) each time. Besides, the “b: directly sowed rice plant, effect on crop grade” value in the series with rice was 5 (Herbicidal ratio of 90% or more (almost completely withered)). Further, the “A (Echinochloa oryzacola Vasing.) herbicidal effect grade” value in series [4] is recorded as 5 (Herbicidal ratio of 90% or more (almost completely withered)). Also, the “d: soybean, effect on crop grade” value in the series with soybean [5] was 3 (Herbicidal ratio of 40% or higher and lower than 70%); in the series on soybean [7], 0 (Herbicidal ratio of 5% or lower (almost no effect)). For the same molecule, the “e: wheat, effect on crop grade” value in the series with wheat is listed as 0 (Herbicidal ratio of 5% or lower (almost no effect)). Moreover, the “R: Veronica persica, herbicidal effect grade” value in the series with Veronica persica [8] was 0 (Herbicidal ratio of 5% or lower (almost no effect)); in the series on Veronica persica [11], 1 (Herbicidal ratio of 5% or higher and lower than 20%). In addition, the “E herbicidal effect grade” value in the series on Cyperus difformis is given as 5 (Herbicidal ratio of 90% or more (almost completely withered)).
Regarding `CON=C(CC1CC(OC(=O)C(C)(C)C)=C(c2c(C)cc(C)cc2OC)C1=O)C1CC1` (mixture of isomers) [13-006], the “K: Lolium multiflorum Lam., herbicidal effect grade” value in the series with Lolium multiflorum Lam. [1] and in the series on Lolium multiflorum Lam. [10] was 5 (Herbicidal ratio of 90% or more (almost completely withered)) throughout. In the series on Amaranthus retroflexus, the “N: Amaranthus retroflexus, herbicidal effect grade” value was 3 (Herbicidal ratio of 40% or higher and lower than 70%). In the series with Galium spurium, the “Q: Galium spurium, herbicidal effect grade” value was 0 (Herbicidal ratio of 5% or lower (almost no effect)). Also, in the series on Avena fatua, the “I: Avena fatua, herbicidal effect grade” value is 5 (Herbicidal ratio of 90% or more (almost completely withered)). For the same molecule, the “c: corn, effect on crop grade” value in the series with corn is 1 (Herbicidal ratio of 5% or higher and lower than 20%). Besides, the “G: Setaria viridis, herbicidal effect grade” value with Setaria viridis [2] and in the series on Setaria viridis [6] was 5 (Herbicidal ratio of 90% or more (almost completely withered)) throughout. Further, the “J: Alopecurus myosuroides, herbicidal effect grade” value in the series on Alopecurus myosuroides [3] and in the series with Alopecurus myosuroides [9] was 5 (Herbicidal ratio of 90% or more (almost completely withered)) throughout. Also, in the series with rice, the “b: directly sowed rice plant, effect on crop grade” value is 5 (Herbicidal ratio of 90% or more (almost completely withered)). Moreover, in series [4], the “A (Echinochloa oryzacola Vasing.) herbicidal effect grade” value was 5 (Herbicidal ratio of 90% or more (almost completely withered)). Also, the “d: soybean, effect on crop grade” value with soybean [5] is 2 (Herbicidal ratio of 20% or higher and lower than 40%); in the series on soybean [7] it was 0 (Herbicidal ratio of 5% or lower (almost no effect)). In addition, the “e: wheat, effect on crop grade” value with wheat is 4 (Herbicidal ratio of 70% or higher and lower than 90%). Further, the “R: Veronica persica, herbicidal effect grade” value in the series with Veronica persica [8] was 0 (Herbicidal ratio of 5% or lower (almost no effect)); with Veronica persica [11], 2 (Herbicidal ratio of 20% or higher and lower than 40%). Besides, in the series with Cyperus difformis, the “E herbicidal effect grade” value is on record as 5 (Herbicidal ratio of 90% or more (almost completely withered)).
